Data from US12351819B2, “Method for removing undifferentiated pluripotent stem cells” (priority 2017, dated 2025).

Key:
[1] = tested on: hiPSC-derived endothelial cells; experiment: LDH cytotoxicity assay in hiPSC-derived endothelial cells; format: cell-based, human; details: 2.5 μM, 24 hours
Procedure: The released LDH was measured using CytoTox 96 Non-Cytotoxicity assay according to the manufacture's instruction (Promega, Southampton, UK). The supernatants and reagents were incubated at room temperature for 20 minutes and then the reaction was stopped by Stop Solution. The absorbance at 490 nm was measured using a plate-reading spectrophotometer (Benchmark Plus Microplate Spectrophotometer System, BIO-RAD, CA, USA).

hESCs teratoma formation = experiment: In vivo tumorigenicity assay (teratoma formation of treated hESCs); details: hESCs treated 24 hours before subcutaneous injection into NSG mice; 8 weeks; vs DMSO
Procedure: Approximately 10^6 treated cells were mixed with 10^5 MEFs to promote teratoma formation in 50 μl PBS^32. The cells mixture and 1× Matrigel Matrix was mixed well and the cells were subcutaneously injected into NOD scid gamma mice (NSG mice) for 8 weeks. After 8 weeks, animals were sacrificed and teratoma was removed, fixed in 10% formalin, embedded in paraffin and stained with hematoxylin and eosin. H&E stain protocol was modified from previous study^33. For immunohistochemistry, teratoma sections were blocked using 5% milk for 1 hour, and stained with primary antibody at 4° C. overnight, follow by secondary antibody (Dako, Santa Clara, CA, USA) for 1 hour at RT and DAB enhancer (Dako). Primary antibody: anti-human alpha-1-fetoprotein (A0008, Dako) for endoderm lineage; anti-human smooth muscle actin, clone 1A4 (M0851, Dako) for mesoderm lineage; anti-Tuj1 (MAB1637, EMD Millipore, Darmstadt, Germany) for ectoderm.

hESCs [2] = experiment: Alamar blue assay, hESCs; format: cell-based, human; details: FIG. 12
Procedure: Alamar blue assay measured the relative cell number. In the cells, we added 1/10 of Alamar Blue Viability Assay reagent to the total volume of the mixture (Biotium; Fremont, CA, USA). The cells were incubated overnight at 37° C. The resulted were quantified by the measurement of optical density (OD) absorbance values at 570 nm and 600 nm, and the relative cell number was calculated.

[3] = tested on: mixture of hESCs and GFP-overexpressing hBMMSCs; experiment: Kidney capsule transplantation of treated hESCs and hBMMSCs; format: in vivo; details: drug-treated hESCs and hBMMSCs under the kidney capsule, NSG mice, five weeks
Procedure: The 293T cells were seeded with 10^6 cells in 6-well plates for the generation of the lentivirus. After 24 hours, the 293T cells were transfected with 1 μg of pLKO_AS3w.eGFP.bsd, 0.9 μg of pCMVR8.91, and 0.1 μg of pMD.G (National RNAi Core Facility, Taipei, Taiwan) via the TurboFect transfection reagent (Thermo Fisher Scientific). At 24 hours after the transfection, the medium was refreshed with the virus harvest medium, which contained HG-DMEM, 10% FBS and 1% BSA. The hBMMSCs were seeded in 6-well plates and later incubated with the lentivirus (multiplicity of infection=10) for one day. The cells were selected with 10 μg/ml blasticidin (Thermo Fisher Scientific) the following day. The GFP overexpressing hBMMSCs were then isolated using a cell sorter (FACS Aria™ II, BD Biosciences) and cultured in a medium containing 10 μg/ml blasticidin for the following experiments.
Mixtures of approximately 8×10^5 hESCs and 8×10^5 hBMMSCs were injected under the kidney capsules into 6-week-old male NSG mice. Five weeks after the transplantation, the animals were sacrificed, and the tissues were removed, fixed in 10% formalin, embedded in paraffin, stained with H&E or were subjected to IHC staining. The staining protocols were described in the materials and method section. Chicken anti-GFP (ab 13970, Abcam, Cambridge, MA, USA) antibody was used for the GFP overexpressing hBMMSCs IHC staining.

hBMMSCs [4] = experiment: Osteogenic differentiation and Alizarin Red S staining; format: cell-based, human; details: 2.5 μM 24 hours, drug removed; Alizarin Red S O.D 570 nm
Procedure: Drugs were removed, and the cells were washed with PBS and cultured in MSCgo™ Osteogenic Differentiation medium (Biological Industries, Kibbutz Beit-Haemek, Israel)^31. The media changed twice per week for 14-21 days. Next, the cells were fixed with ice-cold 70% ethanol at −20° C. for 1 hour. After washing with water for three times, the cells were then stained with 40 mM Alizarin Red S (ARS) (pH 4.2) at room temperature for 10 minutes. The cells were then washed with PBS for five times. An Olympus CK-40 microscope was used to take the images. For quantification, the dye was extracted with 10% (w/v) cetylpyridinium chloride (Sigma 0732) in sodium phosphate buffer (pH 7.0) for 15 minutes, and the O.D. at 570 nm was measured.

hBMMSCs [5] = experiment: Cell morphology under bright field, hBMMSCs; format: cell-based, human; details: 2.5 μM, 12 hours and 24 hours
Source text: (§1) Scale bar: 500 μm. […] The samples were normalized to the DMSO-treated hESCs. ***P<0.001; **P<0.01; n.s. not significant. Data are shown as the mean SD.

hESCs [6] = experiment: Cell colony and morphology under bright field, hESCs; format: cell-based, human; details: 2.5 μM, 12 hours and 24 hours
Procedure: as §1
We investigated whether cardiac glycosides affected the viability of hESCs or other cell types. First, we treated undifferentiated hESCs with digoxin and lanatoside C for 12 hours and 24 hours, respectively. […] To investigate the cytotoxic effect of the cardiac glycosides, we measured the release of LDH in the culture supernatants after the hESCs were treated with digoxin or Lanatoside C for 24 hours (FIG. 1C).

H9 hESC-MSCs = details: 2.5 μM, 24 hours
Procedure: The supernatants of cells treated with digoxin […], lanatoside C 2.5 μm, or DMSO solvent control for 24 hours were harvested. The released LDH was measured using CytoTox 96 […] assay according to the manufacture's instruction (Promega, Southampton, UK). The supernatants and reagents were incubated at room temperature for 20 minutes and then the reaction was stopped by Stop Solution. The absorbance at 490 nm was measured using a plate-reading spectrophotometer (Benchmark Plus Microplate Spectrophotometer System, BIO-RAD, CA, USA).
According to the report from Dr. Xu and colleagues^30, hESCs were cultured with 10 ng/ml BMP4 and 1 μM of A8301 for 5 days. Next, the cells were passaged on the gelatin-coated plate and the culture medium was switched to MSC culture medium [Minimum Essential Medium Eagle Alpha Modification (αMEM) medium supplemented with 20% fetal bovine serum (FBS), 1-glutamine (Gluta-MAX), 1× nonessential amino acids]. Cells were expanded within passage 5, and CD73^+ (11-0793, ThermoFisher Scientific) and CD105^+ (12-1057, ThermoFisher Scientific) double positive cells were sorted.
hESC-derived MSCs were trypsinized and washed with PBS. Then cells were incubated with anti-human CD73 FITC (ThermoFisher Scientific) and anti-human CD105 PE (ThermoFisher Scientific) for 15 minutes at 4° C. Cells were washed cells with PBS for three times. CD73^+/CD105^+ cells were sorted with the cell sorter (BD FACSAria II, BD Biosciences). Sorted cells were maintained in MSC culture medium.

HUES6 hESCs = experiment: Cell colony and morphology under bright field, HUES6; format: cell-based, human; details: 2.5 μM, 12 hours and 24 hours
Source text: Cells became round and died. […] Data are shown as the mean SD.

Compound	survival of hiPSC-derived endothelial cells (LDH release) [1]	tumor (teratoma) weight (hESCs teratoma formation)	cell death in hESCs (Alamar blue, relative cell number) (hESCs [2])	tumor area of kidney tissue [3]	differentiation ability of hBMMSCs into osteoblasts (hBMMSCs [4])	survival of hBMMSCs (bright field morphology) (hBMMSCs [5])	cell death (bright field morphology) in hESCs (hESCs [6])	cytotoxicity (LDH release) in H9 hESC-MSCs (H9 hESC-MSCs)	cell death (bright field morphology) in HUES6 (HUES6 hESCs)
C[C@H]1O[C@@H](O[C@H]2[C@@H](O)C[C@H](O[C@H]3[C@@H](O)C[C@H](O[C@H]4CC[C@@]5(C)[C@H](CC[C@@H]6[C@@H]5C[C@@H](O)[C@]5(C)[C@@H](C7=CC(=O)OC7)CC[C@]65O)C4)O[C@@H]3C)O[C@@H]2C)C[C@H](O)[C@@H]1O [Digoxin, digoxin]	remained alive	significantly decreased	dose dependent manner	significantly inhibited	neither digoxin nor lanatoside C affected the differentiation ability	did not affect the survival	induced dramatic cell death	Neither Digoxin nor lanatoside C affected the survival	induced cell death
CC(=O)O[C@H]1C[C@H](O[C@H]2[C@@H](O)C[C@H](O[C@H]3[C@@H](O)C[C@H](O[C@H]4CC[C@@]5(C)[C@H](CC[C@@H]6[C@@H]5C[C@@H](O)[C@]5(C)[C@@H](C7=CC(=O)OC7)CC[C@]65O)C4)O[C@@H]3C)O[C@@H]2C)O[C@H](C)[C@H]1O[C@@H]1O[C@H](CO)[C@@H](O)[C@H](O)[C@H]1O [Lanatoside C, lanatoside C]	remained alive	significantly decreased	dose dependent manner	significantly inhibited	neither digoxin nor lanatoside C affected the differentiation ability	did not affect the survival	induced dramatic cell death	Neither Digoxin nor lanatoside C affected the survival	induced cell death
